Data taken from patent publication US7998978B2 (Pfizer Inc., priority 2006, dated 2011).

These molecules were tested against T1, JNK1α1 (Homo sapiens, UniProt P45983) (assay: Coupled spectrophotometric (PK/LDH) JNK1α1 assay: % inhibition and Ki determination). Details: JNK-1.
T1 construct: catalytic domain containing amino acids 1-364 and N-terminal hexahistidine tag; hexahistidine (His6) (N); made in house; host or cells: E. coli BL21 (DE3)
Type: biochemical
Procedure, shortened: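 Initial rates were taken from the absorbance decrease at 340 nm at 30° C. Ki was fitted with a tight-binding model over 11 concentrations (top 100 μM); single-point inhibition was tested at 1 or 10 μM.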

T1 sequence (P45983 1-364): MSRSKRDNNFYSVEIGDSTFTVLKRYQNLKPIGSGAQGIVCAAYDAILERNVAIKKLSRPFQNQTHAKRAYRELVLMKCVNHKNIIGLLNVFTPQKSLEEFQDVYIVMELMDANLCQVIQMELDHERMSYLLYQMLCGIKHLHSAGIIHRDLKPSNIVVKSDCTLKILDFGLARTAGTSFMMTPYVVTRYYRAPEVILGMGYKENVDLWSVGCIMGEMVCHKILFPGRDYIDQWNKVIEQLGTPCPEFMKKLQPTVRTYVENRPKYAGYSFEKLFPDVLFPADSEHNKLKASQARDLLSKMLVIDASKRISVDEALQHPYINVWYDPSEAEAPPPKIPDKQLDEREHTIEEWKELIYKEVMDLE

Ki	SMILES
55 nM	COc1ccccc1C(CO)NC(=O)c1ccc2cnc(N[C@H]3CC[C@H](O)CC3)nc2c1 (stereo partly drawn) [Example 97, 2-[(trans-4-hydroxycyclohexyl)amino]-N-[2-hydroxy-1-(2-methoxyphenyl)ethyl]quinazoline-7-carboxamide]
33 nM	O=C(NC(CO)c1ccccc1F)c1ccc2cnc(N[C@H]3CC[C@H](O)CC3)nc2c1 (stereo partly drawn) [Example 98, N-[1-(2-fluorophenyl)-2-hydroxyethyl]-2-[(trans-4-hydroxycyclohexyl)amino]quinazoline-7-carboxamide]
18 nM	O=C(NC(CO)c1ccccc1Cl)c1ccc2cnc(N[C@H]3CC[C@H](O)CC3)nc2c1 (stereo partly drawn) [Example 99, N-[1-(2-chlorophenyl)-2-hydroxyethyl]-2-[(trans-4-hydroxycyclohexyl)amino]quinazoline-7-carboxamide]
120 nM	O=C(NC(CO)c1ccccn1)c1ccc2cnc(N[C@H]3CC[C@H](O)CC3)nc2c1 (stereo partly drawn) [Example 100, 2-[(trans-4-hydroxycyclohexyl)amino]-N-(2-hydroxy-1-pyridin-2-ylethyl)quinazoline-7-carboxamide]
94 nM	NC[C@@H](NC(=O)c1ccc2cnc(N[C@H]3CC[C@H](O)CC3)nc2c1)c1ccccc1 [Example 101, N-[(1S)-2-amino-1-phenylethyl]-2-[(trans-4-hydroxycyclohexyl)amino]quinazoline-7-carboxamide]
992 nM	O=C(c1cccc2cnc(N[C@H]3CC[C@H](O)CC3)nc12)N1CCOCC1 [Example 102, trans-4-{[8-(morpholin-4-ylcarbonyl)quinazolin-2-yl]amino}cyclohexanol]
176 nM	CC(C)NC(=O)c1cccc2cnc(N[C@H]3CC[C@H](O)CC3)nc12 [Example 103, 2-[(trans-4-hydroxycyclohexyl)amino]-N-isopropylquinazoline-8-carboxamide]
66 nM	CC(C)(CO)NC(=O)c1cccc2cnc(N[C@H]3CC[C@H](O)CC3)nc12 [Example 104, 2-[(trans-4-hydroxycyclohexyl)amino]-N-(2-hydroxy-1,1-dimethylethyl)quinazoline-8-carboxamide]
703 nM	CC(C)(CN1CCOCC1)NC(=O)c1cccc2cnc(N[C@H]3CC[C@H](O)CC3)nc12 [Example 105, N-(1,1-dimethyl-2-morpholin-4-ylethyl)-2-[(trans-4-hydroxycyclohexyl)amino]quinazoline-8-carboxamide]
223 nM	CS(=O)(=O)CCNC(=O)c1cccc2cnc(N[C@H]3CC[C@H](O)CC3)nc12 [Example 106, 2-[(trans-4-hydroxycyclohexyl)amino]-N-[2-(methylsulfonyl)ethyl]quinazoline-8-carboxamide]
250 nM	O=C(NCC1CCOC1)c1cccc2cnc(N[C@H]3CC[C@H](O)CC3)nc12 (stereo partly drawn) [Example 107, 2-[(trans-4-hydroxycyclohexyl)amino]-N-(tetrahydrofuran-3-ylmethyl)quinazoline-8-carboxamide]
126 nM	O=C(NCCO)c1cccc2cnc(N[C@H]3CC[C@H](O)CC3)nc12 [Example 108, 2-[(trans-4-hydroxycyclohexyl)amino]-N-(2-hydroxyethyl)quinazoline-8-carboxamide]
678 nM	COCCNC(=O)c1cccc2cnc(N[C@H]3CC[C@H](O)CC3)nc12 [Example 109, 2-[(trans-4-hydroxycyclohexyl)amino]-N-(2-methoxyethyl)quinazoline-8-carboxamide]
86 nM	O=C(Nc1ccccn1)c1cccc2cnc(N[C@H]3CC[C@H](O)CC3)nc12 [Example 110, 2-[(trans-4-hydroxycyclohexyl)amino]-N-pyridin-2-ylquinazoline-8-carboxamide]
142 nM	O=C(NC1CCOC1)c1cccc2cnc(N[C@H]3CC[C@H](O)CC3)nc12 (stereo partly drawn) [Example 111, 2-[(trans-4-hydroxycyclohexyl)amino]-N-(tetrahydrofuran-3-yl)quinazoline-8-carboxamide]
> 10000 nM	O=C(c1cccc2cnc(N[C@H]3CC[C@H](O)CC3)nc12)N1CCC(O)C1 (stereo partly drawn) [Example 112, 1-({2-[(trans-4-hydroxycyclohexyl)amino]quinazolin-8-yl}carbonyl)pyrrolidin-3-ol]
271 nM	O=C(NC1CCOCC1)c1cccc2cnc(N[C@H]3CC[C@H](O)CC3)nc12 [Example 113, 2-[(trans-4-hydroxycyclohexyl)amino]-N-(tetrahydro-2H-pyran-4-yl)quinazoline-8-carboxamide]
1550 nM	CNC(=O)c1cccc2cnc(N[C@H]3CC[C@H](O)CC3)nc12 [Example 114, 2-[(trans-4-hydroxycyclohexyl)amino]-N-methylquinazoline-8-carboxamide]
230 nM	O=C(NC1CCCC1)c1cccc2cnc(N[C@H]3CC[C@H](O)CC3)nc12 [Example 115, N-cyclopentyl-2-[(trans-4-hydroxycyclohexyl)amino]quinazoline-8-carboxamide]

Ki	SMILES
2450 nM	O=C(NCCN1CCOCC1)c1cccc2cnc(N[C@H]3CC[C@H](O)CC3)nc12 [Example 116, 2-[(trans-4-hydroxycyclohexyl)amino]-N-(2-morpholin-4-ylethyl)quinazoline-8-carboxamide]
250 nM	O=C(NCC1CCOC1)c1cccc2cnc(N[C@H]3CC[C@H](O)CC3)nc12 (stereo partly drawn) [Example 117, 2-[(trans-4-hydroxycyclohexyl)amino]-N-(tetrahydrofuran-3-ylmethyl)quinazoline-8-carboxamide]
222 nM	CCNC(=O)c1cccc2cnc(N[C@H]3CC[C@H](O)CC3)nc12 [Example 118, N-ethyl-2-[(trans-4-hydroxycyclohexyl)amino]quinazoline-8-carboxamide]
377 nM	O=C(NC1CCS(=O)(=O)C1)c1cccc2cnc(N[C@H]3CC[C@H](O)CC3)nc12 (stereo partly drawn) [Example 119, N-(1,1-dioxidotetrahydro-3-thienyl)-2-[(trans-4-hydroxycyclohexyl)amino]quinazoline-8-carboxamide]
147 nM	C[C@@H](O)CNC(=O)c1cccc2cnc(N[C@H]3CC[C@H](O)CC3)nc12 [Example 120, 2-[(trans-4-hydroxycyclohexyl)amino]-N-[(2R)-2-hydroxypropyl]quinazoline-8-carboxamide]
169 nM	CC(C)(O)CNC(=O)c1cccc2cnc(N[C@H]3CC[C@H](O)CC3)nc12 [Example 121, 2-[(trans-4-hydroxycyclohexyl)amino]-N-(2-hydroxy-2-methylpropyl)quinazoline-8-carboxamide]
82 nM	C[C@@H](CO)NC(=O)c1cccc2cnc(N[C@H]3CC[C@H](O)CC3)nc12 [Example 122, 2-[(trans-4-hydroxycyclohexyl)amino]-N-[(1S)-2-hydroxy-1-methylethyl]quinazoline-8-carboxamide]
634 nM	C[C@H](CO)NC(=O)c1cccc2cnc(N[C@H]3CC[C@H](O)CC3)nc12 [Example 123, 2-[(trans-4-hydroxycyclohexyl)amino]-N-[(1R)-2-hydroxy-1-methylethyl]quinazoline-8-carboxamide]
410 nM	O=C(NCc1ccccc1)c1cccc2cnc(N[C@H]3CC[C@H](O)CC3)nc12 [Example 124, N-benzyl-2-[(trans-4-hydroxycyclohexyl)amino]quinazoline-8-carboxamide]
520 nM	O=C(Nc1nccc(O)n1)c1cccc2cnc(N[C@H]3CC[C@H](O)CC3)nc12 [Example 125, 2-[(trans-4-hydroxycyclohexyl)amino]-N-(4-hydroxypyrimidin-2-yl)quinazoline-8-carboxamide]
382 nM	CC(O)c1cccc(NC(=O)c2cccc3cnc(N[C@H]4CC[C@H](O)CC4)nc23)n1 (stereo partly drawn) [Example 126, 2-[(trans-4-hydroxycyclohexyl)amino]-N-[6-(1-hydroxyethyl)pyridin-2-yl]quinazoline-8-carboxamide]
3490 nM	CN(C)CCNC(=O)c1cccc2cnc(N[C@H]3CC[C@H](O)CC3)nc12 [Example 127, N-[2-(dimethylamino)ethyl]-2-[(trans-4-hydroxycyclohexyl)amino]quinazoline-8-carboxamide]
3500 nM	CC(C)(N)CNC(=O)c1cccc2cnc(N[C@H]3CC[C@H](O)CC3)nc12 [Example 128, N-(2-amino-2-methylpropyl)-2-[(trans-4-hydroxycyclohexyl)amino]quinazoline-8-carboxamide]
130 nM	O=C(NCC1(O)CCC1)c1cccc2cnc(N[C@H]3CC[C@H](O)CC3)nc12 [Example 129, N-[(1-hydroxycyclobutyl)methyl]-2-[(trans-4-hydroxycyclohexyl)amino]quinazoline-8-carboxamide]
141 nM	CC(C)(O)CNC(=O)c1cccc2cnc(N[C@H]3CC[C@H](NS(C)(=O)=O)CC3)nc12 [Example 130, N-(2-hydroxy-2-methylpropyl)-2-({trans-4-[(methylsulfonyl)amino]cyclohexyl}amino)quinazoline-8-carboxamide]
77 nM	C[C@@H](CO)NC(=O)c1cccc2cnc(N[C@H]3CC[C@H](NS(C)(=O)=O)CC3)nc12 [Example 131, N-[(1S)-2-hydroxy-1-methylethyl]-2-({trans-4-[(methylsulfonyl)amino]cyclohexyl}amino)quinazoline-8-carboxamide]
78 nM	CC(C)(CO)NC(=O)c1cccc2cnc(N[C@H]3CC[C@H](NS(C)(=O)=O)CC3)nc12 [Example 132, N-(2-hydroxy-1,1-dimethylethyl)-2-({trans-4-[(methylsulfonyl)amino]cyclohexyl}amino)quinazoline-8-carboxamide]
210 nM	CC(=O)N[C@H]1CC[C@H](Nc2ncc3cccc(C(=O)N[C@@H](C)CO)c3n2)CC1 [Example 133, 2-{[trans-4-(acetylamino)cyclohexyl]amino}-N-[(1S)-2-hydroxy-1-methylethyl]quinazoline-8-carboxamide]
127 nM	CC(=O)N[C@H]1CC[C@H](Nc2ncc3cccc(C(=O)NC(C)(C)CO)c3n2)CC1 [Example 134, 2-{[trans-4-(acetylamino)cyclohexyl]amino}-N-(2-hydroxy-1,1-dimethylethyl)quinazoline-8-carboxamide]
